# Where two headings read alike, the source gives them in different places.
# Columns and labels:
# [1] = system: Aspergillus niger (ATCC16404); experiment: Minimum inhibiting concentration (MIC), agar plate method; format: cell-based
# Protocol: (§1) Using the agar plate method, for bacteria, the following various bacteria were inoculated in SCD agar media (made by Eiken) containing 3-hexine-2,5-diol in different concentrations and cultured at 30° C. for 24 hours. […] Further, for fungi, the following various bacteria were inoculated in a potato dextrose agar media containing 3-hexine-2,5-diol in different concentrations and cultured at 25° C. for 48 hours. […] The same was conducted for methyl paraoxybenzoate methyl. The results of the judgment are shown in Table 1 based on the following evaluation criteria:
# as §1, with “III-1” for “1”
# as §1, with “media containing the test compound, in different” for “media containing 3-hexine-2,5-diol in different”, “in Table VII-1 based on” for “in Table 1 based on”, “evaluation criteria: […]” for “evaluation criteria:”
# [2] = system: Candida albicans (ATCC10231); experiment: as above; format: cell-based
# Protocol: as §1
# as §1, with “III-1” for “1”
# as §1, with “media containing the test compound, in different” for “media containing 3-hexine-2,5-diol in different”, “in Table VII-1 based on” for “in Table 1 based on”, “evaluation criteria: […]” for “evaluation criteria:”
# [3] = system: Escherichia coli (ATCC8739); experiment: as above; format: cell-based
# Protocol: as §1
# as §1, with “III-1” for “1”
# as §1, with “media containing the test compound, in different” for “media containing 3-hexine-2,5-diol in different”, “in Table VII-1 based on” for “in Table 1 based on”, “evaluation criteria: […]” for “evaluation criteria:”
# [4] = system: Pseudomonas aeuginosa (ATCC15442); experiment: as above; format: cell-based
# Protocol: as §1
# as §1, with “III-1” for “1”
# as §1, with “media containing the test compound, in different” for “media containing 3-hexine-2,5-diol in different”, “in Table VII-1 based on” for “in Table 1 based on”, “evaluation criteria: […]” for “evaluation criteria:”
# [5] = system: Staphylococcus aureus (ATCC6538); experiment: as above; format: cell-based
# Protocol: as §1
# as §1, with “III-1” for “1”
# as §1, with “media containing the test compound, in different” for “media containing 3-hexine-2,5-diol in different”, “in Table VII-1 based on” for “in Table 1 based on”, “evaluation criteria: […]” for “evaluation criteria:”
# [6] = in vivo
# Protocol: (§2) The 3-hexine-2,5-diol of the present invention was tested for safety.
# (§3) The glycerol derivatives of the present invention i.e., 3-phenoxy-1,2-propane diol and 3-benzyloxy-1,2-propane diol, were tested for safety.
# (§4) The 2,2-dimethyl-1-phenyl-1,3-propanediol of the present invention was tested for safety.
# [7] = in vivo; remark: listed apart in the source
# Protocol: as §2, §3, §4
# [8] = in vivo; remark: listed apart in the source
# Protocol: as §2, §3, §4
# Skin sensitization test = conditions: in vivo
# Protocol: as §2, §3, §4
# [9] = Primary skin irritation test; conditions: in vivo
# Protocol: as §2, §3, §4
# [10] = Continuous skin irritation test; conditions: in vivo
# Protocol: as §2, §3, §4
# [11] = Aspergillus niger (ATCC16404), read-out: Antimicrobial effect (minimum inhibiting concentration rank)
# [12] = Candida albicans (ATCC10231), read-out: Antimicrobial effect (minimum inhibiting concentration rank)
# [13] = Escherichia coli (ATCC8739), read-out: Antimicrobial effect (minimum inhibiting concentration rank)
# [14] = Pseudomonas aeuginosa (ATCC15442), read-out: Antimicrobial effect (minimum inhibiting concentration rank)
# [15] = Staphylococcus aureus (ATCC6538), read-out: Antimicrobial effect (minimum inhibiting concentration rank)
# [16] = Table I-1, potato dextrose agar media, 25° C., 48 hours
# [17] = Table I-1, SCD agar media, 30° C., 24 hours
# [18] = Table III-1, potato dextrose agar media, 25° C., 48 hours
# [19] = Table III-1, SCD agar media, 30° C., 24 hours
# Protocol for Genetic toxicity test: as §2, §3, §4
smiles,measurement,setting,value
CC(C)(CO)C(O)c1ccccc1 (stereo not drawn),MIC,[1]; [11],< 1000 µg/mL
same,MIC,[2]; [12],< 1000 µg/mL
same,MIC,[3]; [13],< 1000 µg/mL
same,MIC,[4]; [14],< 1000 µg/mL
same,MIC,[5]; [15],< 1000 µg/mL
same,toxicity (single administration toxicity test),single administration,extremely weak
same,skin irritability (primary skin irritation test),[6],extremely weak
same,skin irritability (continuous skin irritation test),[7],extremely weak
same,skin sensitization test result,[8],negative
"OCC(O)COCc1ccccc1 (stereo not drawn) [3-Benzyloxy-1,2-propane diol, 3-benzyloxy-1,2-propanediol]",MIC,"[1]; Aspergillus niger, ATCC16404, Table III-1, potato dextrose agar media, 25° C., 48 hours, read-out: Antimicrobial effect: minimum inhibiting concentration (MIC)",< 1000 µg/mL
same,MIC,"[2]; Candida albicans, ATCC10231, Table III-1, potato dextrose agar media, 25° C., 48 hours, read-out: Antimicrobial effect: minimum inhibiting concentration (MIC)",< 1000 µg/mL
same,MIC,"[3]; Escherichia coli, ATCC8739, Table III-1, SCD agar media, 30° C., 24 hours, read-out: Antimicrobial effect: minimum inhibiting concentration (MIC)",< 1000 µg/mL
same,MIC,"[4]; Pseudomonas, ATCC15442, Table III-1, SCD agar media, 30° C., 24 hours, read-out: Antimicrobial effect: minimum inhibiting concentration (MIC)",< 1000 µg/mL
same,MIC,"[5]; Staphylococcus aureus, ATCC6538, Table III-1, SCD agar media, 30° C., 24 hours, read-out: Antimicrobial effect: minimum inhibiting concentration (MIC)",< 1000 µg/mL
same,toxicity (single administration toxicity test),single administration,extremely weak
same,skin irritability (primary skin irritation test),[6],extremely weak
same,skin irritability (continuous skin irritation test),[7],extremely weak
same,skin sensitization test result,[8],negative
"OCC(O)COc1ccccc1 (stereo not drawn) [3-Phenoxy-1,2-propane diol, 3-phenoxy-1,2-propanediol]",MIC,"[1]; Aspergillus niger, ATCC16404, 48 h, read-out: Antimicrobial effect: minimum inhibiting concentration (MIC)",< 1000 µg/mL
same,MIC,"[2]; Candida albicans, ATCC10231, 48 h, read-out: Antimicrobial effect: minimum inhibiting concentration (MIC)",< 1000 µg/mL
same,MIC,"[3]; Escherichia coli, ATCC8739, 24 h, read-out: Antimicrobial effect: minimum inhibiting concentration (MIC)",< 1000 µg/mL
same,MIC,"[4]; Pseudomonas, ATCC15442, 24 h, read-out: Antimicrobial effect: minimum inhibiting concentration (MIC)",< 1000 µg/mL
same,MIC,"[5]; Staphylococcus aureus, ATCC6538, 24 h, read-out: Antimicrobial effect: minimum inhibiting concentration (MIC)",< 1000 µg/mL
same,toxicity (single administration toxicity test),in vivo,extremely weak
same,skin irritability (primary skin irritation test),[6],extremely weak
same,skin irritability (continuous skin irritation test),[7],extremely weak
same,skin sensitization test result,[8],negative
"CC(O)C#CC(C)O (stereo not drawn) [3-hexine-2,5-diol]",Antimicrobial effect: minimum inhibiting concentration (MIC),[1]; [16],A (Minimum inhibiting concentration of less than 1000 ppm)
same,Antimicrobial effect: minimum inhibiting concentration (MIC),[2]; [16],A (Minimum inhibiting concentration of less than 1000 ppm)
same,Antimicrobial effect: minimum inhibiting concentration (MIC),[3]; [17],A (Minimum inhibiting concentration of less than 1000 ppm)
same,Antimicrobial effect: minimum inhibiting concentration (MIC),[4]; [17],A (Minimum inhibiting concentration of less than 1000 ppm)
same,Antimicrobial effect: minimum inhibiting concentration (MIC),[5]; [17],A (Minimum inhibiting concentration of less than 1000 ppm)
same,toxicity (single administration toxicity test),single administration,extremely weak
same,genetic toxicity test result,Genetic toxicity test,negative
same,skin sensitization test result,Skin sensitization test,negative
same,skin irritability (primary skin irritation test),[9],extremely weak
same,skin irritability (continuous skin irritation test),[10],extremely weak
"COC(=O)c1ccc(O)cc1 [Methyl paraoxybenzoate, reference compound]",MIC,"[1]; Aspergillus niger (ATCC16404), read-out: Antimicrobial effect (minimum inhibiting concentration class)",1000 to 5000 µg/mL
same,MIC,[1]; [11],1000 to 5000 µg/mL
same,MIC,"[1]; Aspergillus niger, ATCC16404, Table I-1, potato dextrose agar media, 25° C., 48 hours, read-out: Antimicrobial effect: minimum inhibiting concentration (MIC)",1000 to 5000 µg/mL
same,Antimicrobial effect: minimum inhibiting concentration (MIC),[1]; [18],B (Minimum inhibiting concentration of 1000 ppm to less than 5000 ppm)
same,MIC,"[2]; Candida albicans (ATCC10231), read-out: Antimicrobial effect (minimum inhibiting concentration class)",1000 to 5000 µg/mL
same,MIC,[2]; [12],1000 to 5000 µg/mL
same,MIC,"[2]; Candida albicans, ATCC10231, Table I-1, potato dextrose agar media, 25° C., 48 hours, read-out: Antimicrobial effect: minimum inhibiting concentration (MIC)",1000 to 5000 µg/mL
same,Antimicrobial effect: minimum inhibiting concentration (MIC),[2]; [18],B (Minimum inhibiting concentration of 1000 ppm to less than 5000 ppm)
same,MIC,"[3]; Escherichia coli (ATCC8739), read-out: Antimicrobial effect (minimum inhibiting concentration class)",1000 to 5000 µg/mL
same,MIC,[3]; [13],1000 to 5000 µg/mL
same,MIC,"[3]; Escherichia coli, ATCC8739, Table I-1, SCD agar media, 30° C., 24 hours, read-out: Antimicrobial effect: minimum inhibiting concentration (MIC)",1000 to 5000 µg/mL
same,Antimicrobial effect: minimum inhibiting concentration (MIC),[3]; [19],B (Minimum inhibiting concentration of 1000 ppm to less than 5000 ppm)
same,MIC,"[4]; Pseudomonas aeuginosa (ATCC15442), read-out: Antimicrobial effect (minimum inhibiting concentration class)",5000 to 10000 µg/mL
same,MIC,[4]; [14],5000 to 10000 µg/mL
same,MIC,"[4]; Pseudomonas, ATCC15442, Table I-1, SCD agar media, 30° C., 24 hours, read-out: Antimicrobial effect: minimum inhibiting concentration (MIC)",5000 to 10000 µg/mL
same,Antimicrobial effect: minimum inhibiting concentration (MIC),[4]; [19],C (Minimum inhibiting concentration of 5000 ppm to less than 10000 ppm)
same,MIC,"[5]; Staphylococcus aureus (ATCC6538), read-out: Antimicrobial effect (minimum inhibiting concentration class)",1000 to 5000 µg/mL
same,MIC,[5]; [15],1000 to 5000 µg/mL
same,MIC,"[5]; Staphylococcus aureus, ATCC6538, Table I-1, SCD agar media, 30° C., 24 hours, read-out: Antimicrobial effect: minimum inhibiting concentration (MIC)",1000 to 5000 µg/mL
same,Antimicrobial effect: minimum inhibiting concentration (MIC),[5]; [19],B (Minimum inhibiting concentration of 1000 ppm to less than 5000 ppm)

# From US20060257436A1, “Skin preparation composition for external use” (Shiseido Company, Ltd., priority 2003, published 2006)
